The values below come from ChEMBL document CHEMBL1201862, “PubChem BioAssay data set” (2004).

Among the test systems are EKVX; A549; CAKI-1; Malme-3M; HCT-15; OVCAR-4; NCI-H460; SR; NCI-H226; KM12; SF-295; UACC-257; A498; K562; RPMI-8226; HOP-92; COLO 205; HOP-62; UACC-62.
What all share (assay): NCI anticancer screen, dose series, 48 h

Where “and” joins values, the source holds several entries; their conditions need not be identical. Equal values may be shown once.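 48-hour exposure; five concentrations; linearly interpolated endpoints. GI50 is the concentration that inhibits growth by half.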 Calls of active or inactive are those of the source. Cut-off read from the data, not from the text of the source: active = GI50 up to about 1.1 µM and inactive = higher. A value given as a limit tells only on which side of the number the result lay.

`CCNc1cc2c(cc1O)CC[C@@H]1[C@@H]2CC[C@]2(C)[C@@H](O)CC[C@@H]12`: the GI50 with EKVX is 16.3 µM (inactive); in the assay with A549, 2.32 µM (inactive); in the assay with CAKI-1, 13.5 µM (inactive); in the assay with Malme-3M it was 3.75 µM (inactive); with HCT-15, 0.942 µM; in the assay with OVCAR-4, 8.26 µM (inactive). Also, the GI50 is 0.489 µM (active) in the assay on NCI-H460; 1.31 µM (inactive) in the assay on SR; 2.82 µM (inactive) with NCI-H226; 9.04 µM (inactive) in the assay with KM12; 0.912 µM (active) with SF-295; 11.8 µM (inactive) in the assay on UACC-257. For the same compound, the GI50 is 1.7 µM (inactive) with A498; 0.711 µM (active) with K562; 2.31 µM (inactive) in the assay on RPMI-8226; 10.3 µM (inactive) in the assay on HOP-92; 14.4 µM (inactive) in the assay with COLO 205.

For the compound `O=C1/C(=C/c2ccc(Cl)cc2)CCC1CCN1CCOCC1` (stereo unspecified), the GI50 in the assay with EKVX was > 100 µM (inactive); in the assay with A549, > 100 µM (inactive); in the assay with CAKI-1 it was 76.2 µM (inactive); in the assay on HOP-62, 72.1 µM (inactive); in the assay with Malme-3M, > 100 µM (inactive); with HCT-15 it was 36.3 µM. The GI50 is 37.8 µM (inactive) in the assay on OVCAR-4; 38.9 µM (inactive) in the assay on NCI-H460; 26.1 µM (inactive) in the assay with SR; > 100 µM (inactive) in the assay with NCI-H226; 40.8 µM (inactive) with KM12; > 100 µM (inactive) in the assay with SF-295. In addition, the GI50 is > 100 µM (inactive) with UACC-257; 61.1 µM (inactive) in the assay with A498; 25.8 µM (inactive) with K562; 23.8 µM (inactive) in the assay with RPMI-8226; 75.7 µM (inactive) in the assay on HOP-92; > 100 µM (inactive) with UACC-62.

In the case of `Cc1cc(=O)cc2sc3c(C)cccc3nc1-2`, the GI50 in the assay on A549 is 63.5 µM (inactive); with CAKI-1, 39.9 µM (inactive); in the assay on HOP-62 it was 95.3 µM (inactive); in the assay on Malme-3M, 92.7 µM (inactive); in the assay with HCT-15, 48.1 µM; with OVCAR-4, 15.8 µM (inactive). The GI50 with NCI-H460 was 25.4 µM (inactive); in the assay with SR, 22.9 µM (inactive); in the assay with KM12 it was 22.5 µM (inactive); in the assay with SF-295 it was 35 µM (inactive); in the assay with UACC-257, 62.8 µM (inactive); in the assay with A498 it was 23.3 µM (inactive). The GI50 in the assay with K562 is 23.6 µM (inactive); in the assay with RPMI-8226, 19.9 µM (inactive); in the assay on HOP-92 it was 22.4 µM (inactive); in the assay on COLO 205 it was 18.4 µM (inactive).

In the case of `Cc1ccc(S(=O)(=O)N2CCN(C=S)CC2)cc1`, the GI50 in the assay on EKVX was > 100 µM (inactive); in the assay on A549 it was > 100 µM (inactive); in the assay on HOP-62, > 100 µM (inactive); in the assay with Malme-3M, > 100 µM (inactive); with HCT-15, over 100 µM; in the assay on NCI-H460, > 100 µM (inactive). Further, the GI50 in the assay on SR, in the assay on KM12, in the assay with UACC-257, with A498, with K562 and in the assay with COLO 205 was > 100 µM (inactive) each time. Also, the GI50 in the assay on UACC-62 is > 100 µM (inactive).

As to `CC1=C(O)C(=O)C2C(=O)C1C(C)C2c1ccc(Cl)cc1` (stereo unspecified), the GI50 is > 100 µM (inactive) in the assay on EKVX; > 100 µM (inactive) in the assay with A549; > 100 µM (inactive) in the assay with CAKI-1; > 100 µM (inactive) with HOP-62; > 100 µM (inactive) in the assay on Malme-3M; over 100 µM with HCT-15. For the same compound, the GI50 in the assay with OVCAR-4, in the assay on SR, in the assay with NCI-H226, with KM12, with SF-295 and in the assay on A498 was > 100 µM (inactive) in each case. The GI50 with K562, in the assay with RPMI-8226, with HOP-92, in the assay on COLO 205 and in the assay on UACC-62 was > 100 µM (inactive) throughout.

Turning to `O=C(CO)CC(=O)C(=O)Nc1cccc(C(F)(F)F)c1`, the GI50 is > 100 µM (inactive) in the assay with A549; > 100 µM (inactive) in the assay with CAKI-1; > 100 µM (inactive) with HOP-62; > 100 µM (inactive) with Malme-3M; over 100 µM in the assay on HCT-15; > 100 µM (inactive) in the assay on OVCAR-4. The GI50 in the assay on NCI-H460, in the assay with SR, in the assay with NCI-H226, with KM12, with SF-295 and with UACC-257 was > 100 µM (inactive) throughout. The GI50 in the assay on K562, in the assay with RPMI-8226, in the assay on HOP-92, in the assay with COLO 205 and in the assay on UACC-62 was > 100 µM (inactive) each time.

Consider `O=C(CC1Sc2ccccc2NC1=O)Nc1cccc(Cl)c1` (stereo unspecified), for which the GI50 with EKVX is 22.5 µM (inactive); in the assay on A549 it was 43.8 µM (inactive); in the assay on CAKI-1, 33 µM (inactive); in the assay with Malme-3M, 55.2 µM (inactive); in the assay on HCT-15, 40.6 µM; in the assay on OVCAR-4, 44.8 µM (inactive). Moreover, the GI50 with NCI-H460 was 38.5 µM (inactive); in the assay on SR it was 34 µM (inactive); with NCI-H226, 26.8 µM (inactive); in the assay on SF-295, 59.3 µM (inactive); in the assay on UACC-257 it was > 100 µM (inactive); with A498, 28.6 µM (inactive). The GI50 in the assay with K562 was 51.8 µM (inactive); in the assay on RPMI-8226, 21.7 µM (inactive); in the assay on HOP-92, 25.5 µM (inactive); with UACC-62 it was 28.3 µM (inactive).

In the case of `CC(=O)O[C@H]1CC2C(C3CC[C@H](C(C)CCC(N)=O)[C@]31C)[C@H](OC(C)=O)C[C@@H]1CC3(CC[C@]21C)OOC1(CCC(C)CC1)OO3` (stereo partly specified), the GI50 is 1.24 µM (inactive) and 1.79 µM (inactive) in the assay on A549; 2.29 µM (inactive) and 1.71 µM (inactive) in the assay with CAKI-1; 2.12 µM (inactive) and 2.53 µM (inactive) in the assay with Malme-3M; 1.93 µM with HCT-15; 1.32 µM (inactive) and 1.48 µM (inactive) in the assay on OVCAR-4; 1.62 µM (inactive) and 2.28 µM (inactive) in the assay on NCI-H460. The GI50 in the assay on SR is 867 nM (active) and 1.47 µM (inactive); with NCI-H226 it was 1.47 µM (inactive) and 2.09 µM (inactive); with KM12, 1.98 µM (inactive) and 1.83 µM (inactive); in the assay with SF-295, 2.99 µM (inactive) and 2 µM (inactive); in the assay with UACC-257, 5.37 µM (inactive) and 4.6 µM (inactive); with A498 it was 11.7 µM (inactive) and 14.3 µM (inactive). Besides, the GI50 was 2.48 µM (inactive) and 3.99 µM (inactive) in the assay with K562; 1.61 µM (inactive) and 1.5 µM (inactive) in the assay on RPMI-8226; 2.79 µM (inactive) and 1.65 µM (inactive) in the assay with HOP-92; 1.56 µM (inactive) in the assay on COLO 205.

`CC12N=NNC1C(=O)NC2=O` (stereo unspecified): the GI50 was > 100 µM (inactive) in the assay on EKVX; > 100 µM (inactive) in the assay with A549; > 100 µM (inactive) in the assay on CAKI-1; > 100 µM (inactive) in the assay with HOP-62; over 100 µM in the assay with HCT-15; > 100 µM (inactive) with OVCAR-4. Further, the GI50 in the assay on NCI-H460, with SR, in the assay on NCI-H226, in the assay with KM12, in the assay with SF-295 and in the assay with UACC-257 was > 100 µM (inactive) throughout. Moreover, the GI50 with A498 is 89.3 µM (inactive); in the assay on K562, > 100 µM (inactive); in the assay on RPMI-8226, > 100 µM (inactive); in the assay with HOP-92, > 100 µM (inactive); in the assay on COLO 205 it was > 100 µM (inactive); in the assay with UACC-62 it was > 100 µM (inactive).

On to `S=C1SCC2CCCN12` (stereo unspecified), for which the GI50 in the assay on A549 was > 100 µM (inactive); in the assay on CAKI-1, > 100 µM (inactive); in the assay with HOP-62, > 100 µM (inactive); in the assay with Malme-3M it was > 100 µM (inactive); with HCT-15, over 100 µM; in the assay on OVCAR-4, > 100 µM (inactive). Moreover, the GI50 in the assay with NCI-H460, with SR, in the assay on KM12, with SF-295, in the assay on UACC-257 and with A498 was > 100 µM (inactive) each time. For the same compound, the GI50 with K562, in the assay on RPMI-8226, in the assay with HOP-92, in the assay on COLO 205 and with UACC-62 was > 100 µM (inactive) in each case.

Regarding `COc1cccc2c1C(=O)c1c(O)c3c(c(O)c1C2=O)C[C@@](O)(C(=O)CO)CC3OC1CC(NCCOCC(OC(C)=O)OC(C)=O)C(O)C(C)O1` (stereo partly specified), the GI50 was < 0.01 µM (active) in the assay on EKVX; < 0.01 µM (active) with A549; 0.01 µM (active) in the assay with CAKI-1; 0.00382 µM (active) in the assay with HOP-62; < 0.01 µM (active) with Malme-3M; under 0.01 µM in the assay on HCT-15. In addition, the GI50 was < 0.01 µM (active) in the assay with OVCAR-4; < 0.01 µM (active) in the assay on NCI-H460; < 0.01 µM (active) in the assay with SR; < 0.01 µM (active) with NCI-H226; < 0.01 µM (active) in the assay on KM12; 0.00973 µM (active) in the assay on SF-295. Besides, the GI50 in the assay on UACC-257 was < 0.01 µM (active); in the assay on A498, < 0.01 µM (active); in the assay on K562 it was < 0.01 µM (active); in the assay on RPMI-8226, < 0.01 µM (active); in the assay with HOP-92, < 0.01 µM (active); with UACC-62 it was 0.00498 µM (active).

For `CC(C)(C)OC(=O)C#CC[C@H]1CCCC1/C=C/C(O)=C1/C(=O)NC(CCCNC(=O)OC(C)(C)C)C1=O` (stereo partly specified), the GI50 was 16.3 µM (inactive) in the assay with EKVX; > 100 µM (inactive) in the assay with A549; 38.8 µM (inactive) in the assay with CAKI-1; 45.4 µM (inactive) with HOP-62; 21.3 µM (inactive) in the assay on Malme-3M; 33.5 µM (inactive) with OVCAR-4. The GI50 in the assay with NCI-H460 was 20.3 µM (inactive); with SR, 26.2 µM (inactive); with NCI-H226, 88.1 µM (inactive); in the assay on KM12 it was 41.6 µM (inactive); in the assay on SF-295 it was 41.4 µM (inactive); in the assay with UACC-257, 24.2 µM (inactive). In addition, the GI50 with A498 was 45.2 µM (inactive); with K562, 36 µM (inactive); in the assay with RPMI-8226, 33.2 µM (inactive); with HOP-92, 23.7 µM (inactive); in the assay on COLO 205, 17.8 µM (inactive); in the assay with UACC-62 it was 18.3 µM (inactive).
